Experimental data from US20110117209A1 (priority 2008, published 2011).
Where “and” joins values, the source holds several entries; their conditions need not be identical. Identical values can stand only once. Like-named read-outs stand apart in the source and are kept apart here.

Key:
Staphylococcus aureus = assay type: cell-based
[1] = assay type: physicochemical

Compound	activity along EN 13727 (Active/Inefficient) (Staphylococcus aureus)	activity along EN 13727, log reduction (Staphylococcus aureus)	hydrogen peroxide concentration ([1]; T0)	hydrogen peroxide concentration ([1]; T = 15 min)	hydrogen peroxide concentration ([1]; T = 24 h)	hydrogen peroxide concentration ([1]; T = 72 h)
O=S(=O)([O-])[O-].[Cu+2] [CuSO4, copper sulfate]	Inefficient					
OO [H2O2, hydrogen peroxide]	Active	>5 log				
sodium alkylethersulfate			7.6%	7.6%	7.3% and 7.6%	6.9% and 7.6%
sodium alkylsulfate [Sodium alkyl (dodecyl) sulfate]			7.6%	7.6%	7.6%	7.4% and 7.6%
